US7919498B2, “Substituted pyrazolo[3,4-d]pyrimidines as PI3K inhibitors” (Amgen Inc., priority 2007, dated 2011)

What was measured:
[1] = test system: human B cells; experiment: Human B cells proliferation stimulated by anti-IgM; assay type: cell-based; details: B-cell; anti-Human IgM + CD40L-LZ, 72 h, 3H thymidine
Procedure: Human B Cells Proliferation Stimulate by Anti-IgM
Isolate PBMCs from Leukopac or from human fresh blood. Isolate human B cells by using Miltenyi protocol and B cell isolation kit II.—human B cells were Purified by using AutoMacs.column.
Activation of Human B Cells
Use 96 well Flat bottom plate, plate 50000/well purified B cells in B cell proliferation medium (DMEM+5% FCS, 10 mM Hepes, 50 μM 2-mercaptoethanol); 150 μL medium contain 250 ng/mL CD40L-LZ recombinant protein (Amgen) and 2 μg/mL anti-Human IgM antibody (Jackson ImmunoReseach Lab.# 109-006-129), mixed with 50 μL B cell medium containing PI3K inhibitors and incubate 72 h at 37° C. incubator. After 72 h, pulse labeling B cells with 0.5-1 uCi/well ^3H thymidine for overnight ˜18 h, and harvest cell using TOM harvester.

[2] = target: T1, PI3Kδ (Homo sapiens, UniProt O00329); experiment: In vitro enzyme assay of PI3Kδ (residual ATP bioluminescence); assay type: biochemical
T1 construct: Full length p110 subunits of PI3k α, β and δ, N-terminally labeled with polyHis tag; polyHis (N); made in house; host or cells: Sf9 insect cells (baculovirus)
Procedure: Recombinant Expression of PI3Ks
Full length p110 subunits of PI3k α, β and δ, N-terminally labeled with polyHis tag, were coexpressed with p85 with Baculo virus expression vectors in sf9 insect cells. P110/p85 heterodimers were purified by sequential Ni-NTA, Q-HP, Superdex-100 chromatography. Purified α, β and δ isozymes were stored at −20° C. in 20 mM Tris, pH 8, 0.2M NaCl, 50% glycerol, 5 mM DTT, 2 mM Na cholate. Truncated PI3Kγ, residues 114-1102, N-terminally labeled with polyHis tag, was expressed with Baculo virus in Hi5 insect cells. The γ isozyme was purified by sequential Ni-NTA, Superdex-200, Q-HP chromatography. The γ isozyme was stored frozen at −80° C. in NaH2PO4, pH 8, 0.2M NaCl, 1% ethylene glycol, 2 mM β-mercaptoethanol.
Assays were performed in 25 μL with the above final concentrations of components in white polyproplyene plates (Costar 3355). Phospatidyl inositol phosphoacceptor, PtdIns(4,5)P2 P4508, was from Echelon Biosciences. The ATPase activity of the alpha and gamma isozymes was not greatly stimulated by PtdIns(4,5)P2 under these conditions and was therefore omitted from the assay of these isozymes. Test compounds were dissolved in dimethyl sulfoxide and diluted with three-fold serial dilutions. The compound in DMSO (1 μL) was added per test well, and the inhibition relative to reactions containing no compound, with and without enzyme was determined. After assay incubation at room temperature, the reaction was stopped and residual ATP determined by addition of an equal volume of a commercial ATP bioluminescence kit (Perkin Elmer EasyLite) according to the manufacturer's instructions, and detected using a AnalystGT luminometer.

T1 sequence (O00329 whole entry): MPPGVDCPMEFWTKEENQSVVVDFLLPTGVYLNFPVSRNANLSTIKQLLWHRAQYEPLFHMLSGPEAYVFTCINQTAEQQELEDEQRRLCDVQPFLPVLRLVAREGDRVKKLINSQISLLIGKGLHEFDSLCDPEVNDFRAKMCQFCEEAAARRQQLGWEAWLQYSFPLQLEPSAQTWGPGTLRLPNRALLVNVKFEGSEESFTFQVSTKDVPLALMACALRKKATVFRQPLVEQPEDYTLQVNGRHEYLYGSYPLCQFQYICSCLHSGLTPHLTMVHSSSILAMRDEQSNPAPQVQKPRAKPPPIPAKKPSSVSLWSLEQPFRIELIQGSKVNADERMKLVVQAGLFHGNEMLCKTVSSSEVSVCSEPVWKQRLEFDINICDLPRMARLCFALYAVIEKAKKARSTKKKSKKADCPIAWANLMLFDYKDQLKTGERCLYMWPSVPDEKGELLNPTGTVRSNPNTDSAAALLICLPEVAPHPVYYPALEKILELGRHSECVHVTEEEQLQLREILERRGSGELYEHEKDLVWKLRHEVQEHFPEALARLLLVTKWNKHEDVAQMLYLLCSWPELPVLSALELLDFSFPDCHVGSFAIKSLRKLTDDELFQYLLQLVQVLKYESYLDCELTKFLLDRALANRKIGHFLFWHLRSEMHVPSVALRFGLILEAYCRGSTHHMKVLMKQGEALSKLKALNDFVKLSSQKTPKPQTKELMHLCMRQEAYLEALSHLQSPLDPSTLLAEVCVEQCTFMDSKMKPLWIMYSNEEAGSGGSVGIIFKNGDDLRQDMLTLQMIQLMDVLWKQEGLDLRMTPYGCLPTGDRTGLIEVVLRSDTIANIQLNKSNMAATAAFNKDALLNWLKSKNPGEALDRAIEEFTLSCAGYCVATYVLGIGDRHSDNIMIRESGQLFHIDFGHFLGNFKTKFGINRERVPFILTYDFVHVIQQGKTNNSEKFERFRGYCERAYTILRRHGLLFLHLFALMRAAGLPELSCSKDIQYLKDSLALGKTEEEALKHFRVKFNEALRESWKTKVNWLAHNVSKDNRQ
T1 sequence (P27986 whole entry partner): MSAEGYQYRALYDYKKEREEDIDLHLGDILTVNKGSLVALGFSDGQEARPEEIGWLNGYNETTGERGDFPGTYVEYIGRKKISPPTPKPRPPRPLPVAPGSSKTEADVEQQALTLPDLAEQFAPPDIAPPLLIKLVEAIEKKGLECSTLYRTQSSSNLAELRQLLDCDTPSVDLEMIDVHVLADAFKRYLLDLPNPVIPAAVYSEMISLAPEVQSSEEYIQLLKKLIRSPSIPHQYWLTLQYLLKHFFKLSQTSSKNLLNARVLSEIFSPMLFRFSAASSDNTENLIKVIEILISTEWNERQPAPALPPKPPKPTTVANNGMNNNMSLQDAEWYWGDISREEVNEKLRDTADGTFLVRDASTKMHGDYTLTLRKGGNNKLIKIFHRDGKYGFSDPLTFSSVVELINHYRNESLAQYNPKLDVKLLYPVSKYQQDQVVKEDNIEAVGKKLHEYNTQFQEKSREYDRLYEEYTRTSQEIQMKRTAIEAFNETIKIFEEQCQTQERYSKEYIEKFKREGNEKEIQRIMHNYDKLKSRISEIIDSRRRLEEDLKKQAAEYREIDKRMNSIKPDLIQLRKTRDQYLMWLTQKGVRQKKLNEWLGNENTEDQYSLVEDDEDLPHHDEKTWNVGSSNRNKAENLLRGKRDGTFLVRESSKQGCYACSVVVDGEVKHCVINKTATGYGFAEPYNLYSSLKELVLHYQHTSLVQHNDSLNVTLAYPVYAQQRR

Row | SMILES | IC50 [1] [µM] | IC50 [2] [µM]
1 | Nc1ncnc2c1c(I)nn2Cc1nc2cccc(F)c2nc1-c1ccccc1Cl [1-((3-(2-Chlorophenyl)-5-fluoroquinoxalin-2-yl)methyl)-3-iodo-1H-pyrazolo[3,4-d]pyrimidin-4-amine] | 0.554 | –
2 | Nc1ncnc2c1c(I)nn2Cc1nc2c(F)cccc2nc1-c1ccccc1Cl [1-((3-(2-Chlorophenyl)-8-fluoroquinoxalin-2-yl)methyl)-3-iodo-1H-pyrazolo[3,4-d]pyrimidin-4-amine] | 0.818 | –
3 | Cc1cccc2nc(Cn3nc(-c4cnn(C)c4)c4c(N)ncnc43)c(-c3ccccc3Cl)nc12 [1-((3-(2-chlorophenyl)-5-methylquinoxalin-2-yl)methyl)-3-(1-methyl-1H-pyrazol-4-yl)-1H-pyrazolo[3,4-d]pyrimidin-4-amine] | 0.037 | –
4 | Cc1cccc2nc(-c3ccccc3Cl)c(Cn3nc(-c4cnn(C)c4)c4c(N)ncnc43)nc12 [1-((3-(2-chlorophenyl)-8-methylquinoxalin-2-yl)methyl)-3-(1-methyl-1H-pyrazol-4-yl)-1H-pyrazolo[3,4-d]pyrimidin-4-amine] | 0.0198 | –
5 | Nc1ncnc2c1c(-c1cn[nH]c1)nn2Cc1cc2cccc(Cl)c2nc1-c1ccccc1F [1-((8-chloro-2-(2-fluorophenyl)-3-quinolinyl)methyl)-3-(1H-pyrazol-4-yl)-1H-pyrazolo[3,4-d]pyrimidin-4-amine] | 0.0182 | –
6 | Cc1cccc2nc(Cn3nc(I)c4c(N)ncnc43)c(-c3cccc(F)c3)c(=O)n12 [2-((4-amino-3-iodo-1H-pyrazolo[3,4-d]pyrimidin-1-yl)-methyl)-3-(3-fluorophenyl)-6-methyl-4H-pyrido[1,2-a]pyrimidin-4-one] | 0.512 | –
7 | Cc1cccc2nc(Cn3nc(C#N)c4c(N)ncnc43)c(-c3ccccc3Cl)nc12 [4-Amino-1-((3-(2-chlorophenyl)-5-methylquinoxalin-2-yl)methyl)-1H-pyrazolo[3,4-d]pyrimidine-3-carbonitrile] | 0.00199 | –
8 | Cc1cccc2nc(-c3ccccc3Cl)c(Cn3nc(C#N)c4c(N)ncnc43)nc12 [4-Amino-1-((3-(2-chlorophenyl)-8-methylquinoxalin-2-yl)methyl)-1H-pyrazolo[3,4-d]pyrimidine-3-carbonitrile] | 0.0838 | –
9 | Cc1cccc2cc(Cn3cnc4c(N)ncnc43)c(-c3ccccc3Cl)nc12 [Example 1, 9-((2-(2-Chlorophenyl)-8-methylquinolin-3-yl)methyl)-9H-purin-6-amine] | – | 2.13
10 | Cc1cccc2cc(Cn3ccc(=O)c4c(N)ncnc43)c(-c3ccccc3Cl)nc12 [Example 2, 4-Amino-8-((2-(2-chlorophenyl)-8-methylquinolin-3-yl)methyl)pyrido[2,3-d]pyrimidin-5(8H)-one] | – | 0.058
11 | Cc1ccccc1-c1nc2c(C)cccc2cc1Cn1nc(I)c2c(N)ncnc21 [Example 4, 3-Iodo-1-((8-methyl-2-o-tolylquinolin-3-yl)methyl)-1H-pyrazolo[3,4-d]pyrimidin-4-amine] | – | 0.006
12 | Nc1ncnc2c1c(I)nn2Cc1cc2cccc(Cl)c2nc1-c1ccccc1Cl [Example 5, 1-((8-Chloro-2-(2-chlorophenyl)quinolin-3-yl)methyl)-3-iodo-1H-pyrazolo[3,4-d]pyrimidin-4-amine] | – | 0.014
13 | Nc1ncnc2c1c(I)nn2Cc1cc2cccc(Cl)c2nc1-c1ccccc1C(F)(F)F [Example 6, 1-((8-Chloro-2-(2-(trifluoromethyl)phenyl)quinolin-3-yl)methyl)-3-iodo-1H-pyrazolo[3,4-d]pyrimidin-4-amine] | – | 0.007
14 | Cc1cccc2cc(Cn3nc(I)c4c(N)ncnc43)c(-c3ccccc3F)nc12 [Example 7, 1-((2-(2-Fluorophenyl)-8-methylquinolin-3-yl)methyl)-3-iodo-1H-pyrazolo[3,4-d]pyrimidin-4-amine] | – | 0.004
15 | Cc1cccc2cc(Cn3nc(-c4cccc(O)c4)c4c(N)ncnc43)c(-c3ccccc3C(F)(F)F)nc12 [Example 8, 3-(4-Amino-1-((8-methyl-2-(2-(trifluoromethyl)phenyl)quinolin-3-yl)methyl)-1H-pyrazolo[3,4-d]pyrimidin-3-yl)phenol] | – | 0.008
16 | Nc1ncnc2c1c(-c1cccc(O)c1)nn2Cc1cc2cccc(Cl)c2nc1-c1ccccc1Cl [Example 10, 3-(4-Amino-1-((8-chloro-2-(2-chlorophenyl)quinolin-3-yl)methyl)-1H-pyrazolo[3,4-d]pyrimidin-3-yl)phenol] | – | 0.014
17 | Cc1cccc2cc(Cn3nc(C)c4c(N)ncnc43)c(-c3ccccc3Cl)nc12 [Example 11, 1-((2-(2-Chlorophenyl)-8-methylquinolin-3-yl)methyl)-3-methyl-1H-pyrazolo[3,4-d]pyrimidin-4-amine] | – | 0.137
18 | Cc1cccc2cc(Cn3nc(-c4cn[nH]c4)c4c(N)ncnc43)c(-c3ccccc3C(F)(F)F)nc12 [Example 12, 1-((8-Methyl-2-(2-(trifluoromethyl)phenyl)quinolin-3-yl)methyl)-3-(1H-pyrazol-4-yl)-1H-pyrazolo[3,4-d]pyrimidin-4-amine] | – | 0.008
19 | Cc1cccc2cc(Cn3nc(C4CC4)c4c(N)ncnc43)c(-c3ccccc3C(F)(F)F)nc12 [Example 13, 3-Cyclopropyl-1-((8-methyl-2-(2-(trifluoromethyl)phenyl)quinolin-3-yl)methyl)-1H-pyrazolo[3,4-d]pyrimidin-4-amine] | – | 0.149
20 | Cc1cccc2cc(Cn3nc(C#CC(C)(C)O)c4c(N)ncnc43)c(-c3ccccc3C(F)(F)F)nc12 [Example 14, 4-(4-Amino-1-((8-methyl-2-(2-(trifluoromethyl)phenyl)quinolin-3-yl)methyl)-1H-pyrazolo[3,4-d]pyrimidin-3-yl)-2-methylbut-3-yn-2-ol] | – | 0.116
21 | Cc1cccc2nc(-c3ccccc3Cl)c(Cn3nc(I)c4c(N)ncnc43)nc12 [Example 15, 1-((3-(2-Chlorophenyl)-8-methylquinoxalin-2-yl)methyl)-3-iodo-1H-pyrazolo[3,4-d]pyrimidin-4-amine] | – | 0.038
22 | Cc1cccc2nc(Cn3nc(I)c4c(N)ncnc43)c(-c3ccccc3Cl)nc12 [Example 16, 1-((3-(2-Chlorophenyl)-5-methylquinoxalin-2-yl)methyl)-3-iodo-1H-pyrazolo[3,4-d]pyrimidin-4-amine] | – | 0.021
23 | Cc1cccc2nc(-c3ccccc3Cl)c(Cn3nc(-c4cn[nH]c4)c4c(N)ncnc43)nc12 [Example 17, 1-((3-(2-Chlorophenyl)-8-methylquinoxalin-2-yl)methyl)-3-(1H-pyrazol-4-yl)-1H-pyrazolo[3,4-d]pyrimidin-4-amine] | – | 0.018
24 | Cc1cccc2nc(Cn3nc(-c4cn[nH]c4)c4c(N)ncnc43)c(-c3ccccc3Cl)nc12 [Example 18, 1-((3-(2-Chlorophenyl)-5-methylquinoxalin-2-yl)methyl)-3-(1H-pyrazol-4-yl)-1H-pyrazolo[3,4-d]pyrimidin-4-amine] | – | 0.03
25 | Cc1cccc2cc(Cn3ccc4c(N)ncnc43)c(-c3ccccc3Cl)nc12 [Example 19, 7-((2-(2-Chlorophenyl)-8-methylquinolin-3-yl)methyl)-7H-pyrrolo[2,3-d]pyrimidin-4-amine] | – | 1.97
26 | Cc1cccc2cc(Cn3cc(Cl)c4c(N)ncnc43)c(-c3ccccc3Cl)nc12 [Example 20, 5-Chloro-7-((2-(2-chlorophenyl)-8-methylquinolin-3-yl)methyl)-7H-pyrrolo[2,3-d]pyrimidin-4-amine] | – | 0.02
27 | COc1ccccc1-n1c(Cn2ccc(=O)c3c(N)ncnc32)nc2cccc(Cl)c2c1=O [Example 21, 4-Amino-8-((5-chloro-3-(2-methoxyphenyl)-4-oxo-3,4-dihydroquinazolin-2-yl)methyl)pyrido[2,3-d]pyrimidin-5(8H)-one] | – | 0.013
28 | Nc1ncnc2c1c(=O)ccn2Cc1cc2cccc(Cl)c2nc1-c1ccccc1Cl [Example 22, 4-Amino-8-((8-chloro-2-(2-chlorophenyl)quinolin-3-yl)methyl)pyrido[2,3-d]pyrimidin-5(8H)-one] | – | 0.033
29 | Cc1nn([C@@H](C)c2cc3cccc(Cl)c3nc2-c2cccc(F)c2)c2ncnc(N)c12 [Example 23, 1-((S)-1-(8-chloro-2-(3-fluorophenyl)quinolin-3-yl)ethyl)-3-methyl-1H-pyrazolo[3,4-d]pyrimidin-4-amine] | 0.00157 | –
30 | Nc1ncnc2c1c(I)nn2Cc1cc2c(Cl)cccc2nc1-c1ccccc1Cl [Example 25, 1-((5-Chloro-2-(2-chlorophenyl)quinolin-3-yl)methyl)-3-iodo-1H-pyrazolo-[3,4-d]pyrimidin-4-amine] | 0.0934 | –
